From ChEMBL document CHEMBL1201862, “PubChem BioAssay data set” (2004)
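Growth conditions: 96-well plates. Treatment: test compound, 48 hours, 5 concentrations. Analysis: linear interpolation between bracketing concentrations; unreached endpoints set to highest concentration. GI50 = concentration required for 50% inhibition of growth.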 The source made the active and inactive calls. Cut-off read from the data, not from the text of the source: active = GI50 up to about 1.1 µM and inactive = higher.

Assays:
Test in all cases: NCI tumour cell line growth inhibition, 48 h
[1] = system: 786-0
[2] = system: NCI-H522
[3] = system: U-251
[4] = system: SK-MEL-28
[5] = system: CAKI-1
[6] = system: EKVX
[7] = system: Hs-578T
[8] = system: SR
[9] = system: MOLT-4
[10] = system: OVCAR-3
[11] = system: HT-29
[12] = system: M14
[13] = system: TK-10
[14] = system: HCT-116
[15] = system: SK-OV-3
[16] = system: SN12C
[17] = system: HCC 2998
[18] = system: COLO 205
[19] = system: Malme-3M

Measured: GI50

CCOC(=O)Cn1nc2ccc(Nc3c(C)[n+]([O-])c4cc(F)c(OCC)cc4[n+]3[O-])cc2n1
inactive: [1] 29.8 µM | [2] > 100 µM | [3] 37.5 µM | [4] > 100 µM | [5] > 100 µM | [6] > 100 µM | [7] 40.7 µM | [8] > 100 µM | [9] > 100 µM | [10] > 100 µM | [11] > 100 µM | [12] > 100 µM | [13] 27.5 µM | [14] > 100 µM | [15] 56.4 µM

Cc1cc2c3ccccc3[nH]c2c2ccnc(C)c12
inactive: [1] 1.65 µM | [2] 2.65 µM | [3] 2.24 µM | [4] 1.77 µM | [5] 19 µM | [6] 1.49 µM | [16] 5.56 µM | [7] 13.6 µM | [8] 6.62 µM | [9] 7.16 µM | [10] 10.3 µM | [11] 3.55 µM | [12] 1.84 µM | [13] 14.2 µM | [17] 2.87 µM | [14] 2.21 µM | [15] 14.2 µM | [18] 1.94 µM | [19] 13.5 µM

O=C1N(CN2CCOCC2)CN(CN2CCOCC2)C(=O)N1Cc1ccc(CN2C(=O)N(CN3CCOCC3)CN(CN3CCOCC3)C2=O)cc1
inactive: [1] 28.8 µM | [2] > 100 µM | [3] 44.9 µM | [4] 31.3 µM | [5] 38.3 µM | [6] > 100 µM | [16] 59.8 µM | [7] 22 µM | [8] 46.9 µM | [9] 35.2 µM | [10] 31.6 µM | [11] 42 µM | [12] 28.2 µM | [13] > 100 µM | [17] > 100 µM | [14] 33.6 µM | [15] > 100 µM | [18] 43 µM

CCOC(OCC)[C@H](N)[C@@H](O)[C@@H](O)[C@H]1COC(C)(C)O1
inactive: [1] > 100 µM | [3] > 100 µM | [4] > 100 µM | [6] > 100 µM | [16] > 100 µM | [7] > 100 µM | [8] > 100 µM | [9] > 100 µM | [10] > 100 µM | [11] > 100 µM | [12] > 100 µM | [13] > 100 µM | [14] > 100 µM | [15] > 100 µM | [18] > 100 µM | [19] > 100 µM
